Laboratory results as given in ChEMBL document CHEMBL1137934, “Inhibition of monoamine oxidases by coumarin-3-acyl derivatives: biological activity and computational study” (Bioorg Med Chem Lett, 2004).

Tests used:
[1] = target: Amine oxidase [flavin-containing] A (Bos taurus) (UniProt P21398)
[2] = target: Amine oxidase [flavin-containing] B (Bos taurus) (UniProt P56560)
Amine oxidase [flavin-containing] B (Bos taurus), sequence (P56560 whole entry, looked up): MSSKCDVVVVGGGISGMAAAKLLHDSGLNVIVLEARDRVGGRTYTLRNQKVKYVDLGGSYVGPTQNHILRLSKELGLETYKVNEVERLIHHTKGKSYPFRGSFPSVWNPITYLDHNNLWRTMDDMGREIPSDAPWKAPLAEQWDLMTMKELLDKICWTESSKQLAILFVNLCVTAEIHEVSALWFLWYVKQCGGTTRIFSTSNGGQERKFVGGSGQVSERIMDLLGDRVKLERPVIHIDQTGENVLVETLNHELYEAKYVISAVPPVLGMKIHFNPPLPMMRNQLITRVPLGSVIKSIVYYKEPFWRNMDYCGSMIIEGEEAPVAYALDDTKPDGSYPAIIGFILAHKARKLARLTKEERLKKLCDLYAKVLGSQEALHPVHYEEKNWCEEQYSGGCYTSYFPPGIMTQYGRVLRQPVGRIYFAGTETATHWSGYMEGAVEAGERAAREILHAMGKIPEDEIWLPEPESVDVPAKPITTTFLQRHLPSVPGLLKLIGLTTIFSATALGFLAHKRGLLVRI

- IC50 [1]: 501 nM
- IC50 [2]: 1000 nM
Compound: CCOC(=O)C1=Cc2cc(Cl)ccc2CC1=O
